The values that follow come from patent publication US9233983B2, “Substituted hetero-bicyclic compounds, compositions and medicinal applications thereof” (ADVINUS THERAPEUTICS LIMITED, priority 2012, dated 2016).

One assay deals with mouse splenocytes. The experiment in a line: Inhibition of B Cell Activation as Measured by CD69 Expression in Mouse Splenocytes. The conditions noted are these: Splenocyte; C57/BL6 splenocytes, 3 ug/mL goat anti-mouse IgM, 18-20 hrs, CD69+ve cells within CD19; read-out: Mouse spleenocyte IC50. It counts as cell-based. Summed up: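 Total mouse splenocytes pre-incubated with compounds (half-log dilutions; DMSO 200× stocks from 2 mM) 30 min at 37 °C, then stimulated with 3 ug/mL anti-mouse IgM for 18-20 hrs. CD69+ cells within CD19+ B cells quantified by flow cytometry; IC50 from variable-slope sigmoid dose-response fit.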

The target of assay [1] is human Bruton's Tyrosine Kinase (Btk) (Homo sapiens (Human), UniProt Q06187). Briefly: Recombinant Human Bruton's Tyrosine Kinase (Btk) Inhibition Assay (HTRF KinEASE-TK). It counts as biochemical. To be noted: 20 ng/ml rhBtk, 77 μM ATP (KM), 1 μM TK-Biotin substrate, 90 min; read-out: hBTK IC50. On the technique in general: TR-FRET usually uses a lanthanide donor and a delayed reading to cut background.
Chain of human Bruton's Tyrosine Kinase (Btk) (Q06187 whole entry): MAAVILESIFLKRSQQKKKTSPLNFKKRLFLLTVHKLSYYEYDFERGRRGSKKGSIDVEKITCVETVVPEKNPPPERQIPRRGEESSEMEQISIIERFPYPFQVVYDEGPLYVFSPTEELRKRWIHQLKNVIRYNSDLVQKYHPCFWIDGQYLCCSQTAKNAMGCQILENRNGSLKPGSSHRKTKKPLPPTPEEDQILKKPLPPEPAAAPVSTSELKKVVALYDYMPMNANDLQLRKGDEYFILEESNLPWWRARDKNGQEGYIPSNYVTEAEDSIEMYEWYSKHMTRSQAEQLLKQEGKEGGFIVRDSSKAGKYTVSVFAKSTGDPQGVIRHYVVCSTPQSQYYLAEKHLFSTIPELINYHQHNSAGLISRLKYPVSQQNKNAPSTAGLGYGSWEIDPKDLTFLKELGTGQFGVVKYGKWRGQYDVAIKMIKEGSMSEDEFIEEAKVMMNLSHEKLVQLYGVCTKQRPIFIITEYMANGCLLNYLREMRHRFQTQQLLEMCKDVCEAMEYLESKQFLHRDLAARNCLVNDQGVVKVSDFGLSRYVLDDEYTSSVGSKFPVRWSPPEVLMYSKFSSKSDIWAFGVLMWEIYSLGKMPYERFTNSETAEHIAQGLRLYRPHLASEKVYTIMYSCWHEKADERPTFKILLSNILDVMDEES

pIC50: −log10 of the molar value.

A word on the pIC50: it is −log10 of the IC50, conventionally taken in molar units.

On to `Cc1c(-c2ncnc3[nH]c(-c4ccc(C(=O)N5CCNCC5)cc4)cc23)cccc1N1CCOc2cc(C3CC3)ccc2C1=O` [Example K-6, 8-cyclopropyl-4-[2-methyl-3-[6-[4-(piperazine-1-carbonyl)phenyl]-7H-pyrrolo[2,3-d]pyrimidin-4-yl]phenyl]-2,3-dihydro-1,4-benzoxazepin-5-one], for which the pIC50 with mouse splenocytes is 6.72; in assay [1], 8.01.
On the same counts, the results for `O=C1c2c(F)cc(C3CC3)cc2OCCN1c1cccc(-c2ccnc3[nH]c(C4=CCN(C5CCOCC5)CC4)cc23)c1CO` [Example P-26, 8-cyclopropyl-6-fluoro-4-[2-(hydroxymethyl)-3-[2-(1-tetrahydropyran-4-yl-3,6-dihydro-2H-pyridin-4-yl)-1H-pyrrolo[2,3-b]pyridin-4-yl]phenyl]-2,3-dihydro-1,4-benzoxazepin-5-one] are 6.79 and 8.47.
For `O=C(N1CC=C(c2cc3c(-c4cccc(N5CCOc6cc(C7CC7)cc(F)c6C5=O)c4CO)ccnc3[nH]2)CC1)N1CCOCC1` [Example P-18, 8-cyclopropyl-6-fluoro-4-[2-(hydroxymethyl)-3-[2-[1-(morpholine-4-carbonyl)-3,6-dihydro-2H-pyridin-4-yl]-1H-pyrrolo[2,3-b]pyridin-4-yl]phenyl]-2,3-dihydro-1,4-benzoxazepin-5-one] the same measures were 8.27 and 8.77.
For `Cc1c(-c2ncnc3[nH]c(-c4ccc(C(=O)N5CCNCC5)cc4)cc23)cccc1N1CCc2cc(C3CC3)ccc2C1=O` [Example K-19, 6-cyclopropyl-2-[2-methyl-3-[6-[4-(piperazine-1-carbonyl)phenyl]-7H-pyrrolo[2,3-d]pyrimidin-4-yl]phenyl]-3,4-dihydroisoquinolin-1-one] the same measures were below 6.00 and 7.44.
Take `CN1CCC(n2cc(-c3cc4c(-c5cccc(N6CCOc7cc(C8CC8)ccc7C6=O)c5CO)ccnc4[nH]3)cn2)CC1` [Example D-5, 8-cyclopropyl-4-[2-(hydroxymethyl)-3-[2-[1-(1-methyl-4-piperidyl)pyrazol-4-yl]-1H-pyrrolo[2,3-b]pyridin-4-yl]phenyl]-2,3-dihydro-1,4-benzoxazepin-5-one]: the results for the pIC50 (with mouse splenocytes; in assay [1]) were 7.42 and 8.30, respectively.
For `CN1CCC(n2cc(-c3cc4c(-c5cccc(-n6ncc7cc(C8CC8)ccc7c6=O)c5CO)ncnc4[nH]3)cn2)CC1` [Example D-9] the same measures were 7.48 and 8.70.
For `Cc1c(-c2ncnc3[nH]c(-c4ccc(CN5CCC(O)CC5)cc4)cc23)cccc1N1CCc2cc(C3CC3)ccc2C1=O` [Example B-22, 6-cyclopropyl-2-[3-[6-[4-[(4-hydroxy-1-piperidyl)methyl]phenyl]-7H-pyrrolo[2,3-d]pyrimidin-4-yl]-2-methyl-phenyl]-3,4-dihydroisoquinolin-1-one] the same measures were 6.86 and 7.49.
On the same counts, the results for `O=C1c2ccc(C3CC3)cc2OCCN1c1cccc(-c2ccnc3[nH]c(-c4cnn(C5COC5)c4)cc23)c1CO` [Example F-1, 8-cyclopropyl-4-[2-(hydroxymethyl)-3-[2-[1-(oxetan-3-yl)pyrazol-4-yl]-1H-pyrrolo[2,3-b]pyridin-4-yl]phenyl]-2,3-dihydro-1,4-benzoxazepin-5-one] are 7.15 and 8.52.
With `Cc1c(-c2nc(N)nc3[nH]c(-c4ccc(C(=O)N5CCOCC5)cc4)cc23)cccc1N1CCOc2cc(C3CC3)ccc2C1=O` [Example O-1, 4-[3-[2-amino-6-[4-(morpholine-4-carbonyl)phenyl]-7H-pyrrolo[2,3-d]pyrimidin-4-yl]-2-methyl-phenyl]-8-cyclopropyl-2,3-dihydro-1,4-benzoxazepin-5-one], the negative-log IC50 (pIC50) was 6.77 in the assay on mouse splenocytes and 7.26 in assay [1].
On the same counts, the results for `O=C1c2ccc(C3CC3)cc2OCCN1c1cccc(-c2ccnc3[nH]c(-c4ccc(CN5CCN(S(=O)(=O)C6CC6)CC5)cn4)cc23)c1CO` [Example I-10, 8-cyclopropyl-4-[3-[2-[5-[(4-cyclopropylsulfonylpiperazin-1-yl)methyl]-2-pyridyl]-1H-pyrrolo[2,3-b]pyridin-4-yl]-2-(hydroxymethyl)phenyl]-2,3-dihydro-1,4-benzoxazepin-5-one] are 7.51 and 8.15.
In the case of `CCN1CCN(Cc2ccc(-c3cc4c(-c5cccc(N6CCOc7cc(C8CC8)cc(F)c7C6=O)c5CO)ccnc4[nH]3)nc2)CC1` [Example I-12, 8-cyclopropyl-4-[3-[2-[5-[(4-ethylpiperazin-1-yl)methyl]-2-pyridyl]-1H-pyrrolo[2,3-b]pyridin-4-yl]-2-(hydroxymethyl)phenyl]-6-fluoro-2,3-dihydro-1,4-benzoxazepin-5-one], the pIC50 with mouse splenocytes was 7.34; in assay [1], 8.70.
On the same counts, the results for `O=C1c2ccc(C3CC3)cc2OCCN1c1cccc(-c2ccnc3[nH]c(-c4ccc(CN5CCS(=O)(=O)CC5)cn4)cc23)c1CO` [Example I-8, 8-cyclopropyl-4-[3-[2-[5-[(1,1-dioxo-1,4-thiazinan-4-yl)methyl]-2-pyridyl]-1H-pyrrolo[2,3-b]pyridin-4-yl]-2-(hydroxymethyl)phenyl]-2,3-dihydro-1,4-benzoxazepin-5-one] are 7.07 and 8.05.
For `CN1CCC(F)(c2ccc(-c3cc4c(-c5cccc(N6CCOc7cc(C8CC8)ccc7C6=O)c5CO)ccnc4[nH]3)cc2)CC1` [Example J-1, 8-cyclopropyl-4-[3-[2-[4-(4-fluoro-1-methyl-4-piperidyl)phenyl]-1H-pyrrolo[2,3-b]pyridin-4-yl]-2-(hydroxymethyl)phenyl]-2,3-dihydro-1,4-benzoxazepin-5-one] the same measures were 6.75 and 8.05.
On the same counts, the results for `O=C1c2c(F)cc(C3CC3)cc2OCCN1c1cccc(-c2ccnc3[nH]c(-c4cnn(C5CCN(C6COC6)CC5)c4)cc23)c1CO` [Example D-14, 8-cyclopropyl-6-fluoro-4-[2-(hydroxymethyl)-3-[2-[1-[1-(oxetan-3-yl)-4-piperidyl]pyrazol-4-yl]-1H-pyrrolo[2,3-b]pyridin-4-yl]phenyl]-2,3-dihydro-1,4-benzoxazepin-5-one] are 8.10 and 8.77.
In the case of `CCN1CCN(Cc2ccc(-c3cc4c(-c5cccc(N6CCOc7cc(C8CC8)ccc7C6=O)c5CO)ccnc4[nH]3)cc2)CC1` [Example B-16, 8-cyclopropyl-4-[3-[2-[4-[(4-ethylpiperazin-1-yl)methyl]phenyl]-1H-pyrrolo[2,3-b]pyridin-4-yl]-2-(hydroxymethyl)phenyl]-2,3-dihydro-1,4-benzoxazepin-5-one], the negative logarithm of the IC50 (pIC50) in the assay with mouse splenocytes is 7.77; in assay [1], 8.40.
Take `NC(=O)c1ccc(-c2cc3c(-c4cccc(N5CCOc6cc(C7CC7)ccc6C5=O)c4CO)ccnc3[nH]2)nc1` [Example K-22, 6-[4-[3-(8-cyclopropyl-5-oxo-2,3-dihydro-1,4-benzoxazepin-4-yl)-2-(hydroxymethyl)phenyl]-1H-pyrrolo[2,3-b]pyridin-2-yl]pyridine-3-carboxamide]: the pIC50 was 8.10 in the assay on mouse splenocytes and 8.70 in assay [1].
